{"source": "patent US20100272711A1", "about": "“COMPOSITIONS AND METHODS FOR THE TREATMENT AND PREVENTION OF CARDIOVASCULAR DISEASES” (THOMAS JEFFERSON UNIVERSITY, priority 2007, published 2010)", "key": {"[1]": {"test_system": "wild-type and TNF 1.6 mice", "assay": "Left ventricular hemodynamics: chronotropic and functional responsiveness to adenosine analogue or AR agonists", "type": "in vivo, mouse", "description": "FIGS. 16A-16B show the cardiac response of wild type (WT) and TNF 1.6 transgenic mice to an adenosine analogue or AR agonists. Under anesthetization, a 1.4 F micromanometer catheter (Millar Instruments) was inserted into the left ventricle through the right carotid artery. Chronotropic and functional responsiveness to adenosine analogue or AR agonists were recorded. […] Values are mean±SEM (n=5). *P<0.05 vs. age-matched WT. The graph measured the slope (in vivo chronotropic responsiveness) from baseline to 10 minutes after drug administration in wild-type and TNF 1.6 mice. Values were mean±SEM (n=5) and compared using ANOVA General Linear Model with repeated measures. *P<0.05 vs. age-matched WT in slope change. The graph in FIG. 16B measured the slope (arterial pressure or cardiac contractility) from baseline to 10 minutes after drug administration in wild-type and TNF1.6 mice. Values were mean±SEM (n=5) and compared using ANOVA General Linear Model with repeated measures. *P<0.05 vs. age-matched WT in slope change. Left Ventricular Hemodynamics Measurement. After anesthetization with 2.5% Avertin (10 μl/g body weight, IP, Aldrich Chemical Co), mice were placed in the supine position. A 1.4 F micromanometer catheter (Millar Instruments) was inserted into the left ventricle through the right carotid artery.^64,65 Left ventricular pressure and heart rate were then recorded at baseline and 10 minutes after injection of CPA (0.1 mg/kg body weight, IP, Sigma-Aldrich Co). A1 receptor-specific functional response. To determine whether the changes in A1-AR levels had functional significance in TNF 1.6 mice, the inventors determined the chronotropic response to the selective A1-AR agonist, 2-chloro-N^6-cyclopentanyladenosine (CPA)."}, "[2]": {"test_system": "animal models of ischemia/reperfusion injury", "details": "with a sodium-hydrogen exchanger inhibitor at reperfusion; or just before reperfusion in animal models; cited from earlier work"}, "[3]": {"test_system": "cardiac A1-AR expression (tTA transactivation)", "assay": "Doxycycline-regulated A1-AR transgene expression (tet-off system) in A1-TG mice", "type": "in vivo, mouse", "source_text": "Transgenic mouse generation. The human A1-AR cDNA was cloned into a cardiac-specific and inducible controlled vector (TREMHC)^64 composed of a modified mouse α-myosin heavy chain minimal promoter fused with nucleotide binding sites for tetracyline transactivating factor (tTA).^33 A1-AR transgenic mice, engineered on a FVB background (PolyGene, Switzerland), were crossed with mice that expressed tTA in the heart (MHC-tTA) (FIG. 1A). In this “tet-off” inducible system, the stable tetracycline analog, doxycycline (DOX), inhibits tTA transactivation and was administered to mice at 300 mg/kg of mouse diet (Bio-Serv, NJ). Survival studies were performed using both male and female mice and found no statistical significant differences. Therefore, only male mice were used for subsequent studies. All protocols were approved by the Institutional Animal Care and Use Committee of Thomas Jefferson University.\nDoxycyline-regulated A1-AR expression. The stable tetracycline analog, doxycycline (DOX), inhibits tTA transactivation. The inventors determined a minimal dose of DOX (300 mg/kg of mouse diets) that attenuated A1-AR expression, which, in turn prevented cardiomyopathy. […] To generate inducible A1-AR transgenic mice (A1-TGInd), DOX was removed when mice reached three-weeks of age. […] At six weeks of age, A1-AR protein expression in A1-TGCcon and A1-TGInd was identical (FIGS. 2B and C). […]"}, "WT mice": {"test_system": "WT mice", "assay": "Effect of DOX diet on heart size and function of wild type mice", "type": "in vivo, mouse", "details": "300 mg/kg diet; 12-week-old mice; FIGS. 9 and 10", "description": "7-10 12-weeks old mice from each group were measured. No significance was detected at p-value setting of P<0.05.\nEchocardiography were performed on 7-10 12-weeks-old male mice. No significance was detected at p-value setting of P<0.05.\nEchocardiography and Electrocardiogram (ECG). Echocardiographic studies on A1-AR transgenic mice were performed using an ultrasonographic system (ACUSON Sequoia C256) as described.^34,35 […] Non-transgenic littermates served as controls and unless otherwise noted, all mice were male. Mice were anesthetized with 2.5% Avertin (10 μl/g body weight, IP, Aldrich Chemical Co) and placed in the supine position. A 14-MHz transducer was applied to the left hemithorax. Two-dimensional targeted M-mode imaging was obtained from the short-axis view at the level of the greatest left ventricular dimension at baseline. […] End diastole was determined at the maximal left ventricular diastolic dimension, and end systole was taken at the peak of posterior-wall motion. […] ECG was recorded for 2 minutes and analyzed using Char 5 software (Adinstruments). […]"}}}
{"smiles": "OC[C@H]1O[C@@H](n2cnc3c(NC4CCCC4)nc(Cl)nc32)[C@H](O)[C@@H]1O", "note": "[CPA, 2-chloro-N^6-cyclopentanyladenosine]", "values": [{"measurement": "arterial pressure and cardiac contractility after injection", "setting": "[1]; baseline to 10 minutes after CPA injection, FIG. 16B", "value": "only slightly increased arterial pressure and cardiac contractility"}, {"measurement": "chronotropic response in TNF 1.6 mice compared with age- and gender-matched wild-type controls", "setting": "[1]; baseline to 10 minutes after drug administration, n=5", "value": "far more robust decrease in heart rate"}, {"measurement": "heart rate (chronotropic response)", "setting": "[1]; wild-type mice, baseline to 10 minutes after injection, CPA 0.1 mg/kg IP", "value": "effectively decreased heart rate"}]}
{"smiles": "CCNC(=O)[C@H]1CC(n2cnc3c(N[C@H](CC)Cc4sccc4Cl)ccnc32)[C@H](O)[C@@H]1O", "note": "(relative stereo) [AMP 579, [1S-[1α,2β,3β,4α(S*)]]-4-[7-[[3-chloro-2-thienyl)methyl]propyl]amino]-3H-imidazo[4,5-b]pyridin-3-yl]-N-ethyl-2,3-dihydroxycyclopentanecarboxamide]", "values": [{"measurement": "cardioprotection", "setting": "[2]", "value": "cardioprotective"}]}
{"smiles": "C[C@H]1c2cccc(O)c2C(=O)C2=C(O)[C@]3(O)C(=O)C(C(N)=O)=C(O)[C@@H](N(C)C)[C@@H]3[C@@H](O)[C@@H]21", "note": "[DOX, doxycycline]", "values": [{"measurement": "minimal dose that attenuated A1-AR expression", "setting": "[3]; in turn prevented cardiomyopathy", "value": "300 mg/kg of mouse diets"}, {"measurement": "transgene suppressed", "setting": "[3]; sub-optimum DOX dose", "value": 80, "unit": "%"}, {"measurement": "WT mouse heart size or function", "setting": "WT mice", "value": "did not affect WT mouse heart size or function"}]}
